We go through 13 molecules from patent US20250145665A1, “MACROCYCLIC PEPTIDES USEFUL AS MODULATORS OF TNF ALPHA” (Bristol-Myers Squibb Company, priority 2023, published 2025).

Each structure is given as a SMILES string. Starred links: 1 amine or outer side, 2 acyl side, 3 side chain; linkers in the order of their positions; H or OH if unused. Positions of bridges follow the written chain, without caps; N, C: chain ends. Non-standard residues stand in square brackets, D forms with d. Residues, ends and D or L forms follow the SMILES beside them. *: point of attachment. Bip(4'-NHCO-C6H4-4-CH2COOH) = N[C@@H](Cc1ccc(-c2ccc(NC(=O)c3ccc(CC(=O)O)cc3)cc2)cc1)C(=O)O; X56 = O=C(O)COc1cccc(NC(=O)c2ccc(-c3ccc(C[C@H](N[*:1])C(=O)[*:2])cc3)cc2)c1; X65 = O=C(O)Cc1cccc(NC(=O)c2ccc(-c3ccc(C[C@H](N[*:1])C(=O)[*:2])cc3)cc2)c1; X21 = N=C(NCCC[C@@H](N[*:1])C(=O)[*:2])NC[C@H](O)[C@@H](O)[C@@H](O)CO; dArg(ω-(2S)-2,3-diOHpropyl) = N=C(NCCC[C@@H](N)C(=O)O)NC[C@H](O)CO; Bip(4'-NH) = O=C([C@H](Cc1ccc(-c2ccc(N[*:3])cc2)cc1)N[*:1])[*:2]; dArg(ω-(3-HO-benzyl)) = N=C(NCCC[C@@H](N)C(=O)O)NCc1cccc(O)c1; Indazole3carbonyl(1-CH2COOH) = O=C(O)Cn1nc(C(=O)*)c2ccccc21; Bip(4'-COOH) = N[C@@H](Cc1ccc(-c2ccc(C(=O)O)cc2)cc1)C(=O)O; Indole3carbonyl(1-CH2COOH) = O=C(O)Cn1cc(C(=O)*)c2ccccc21; X68 = N=C(NCCC[C@@H](N[*:1])C(=O)[*:2])NCc1ccc(O)c(O)c1; X69 = N=C(NCCC[C@@H](N[*:1])C(=O)[*:2])NCc1cccc(N)c1; Ala(imidazol-2-yl) = N[C@@H](Cc1ncc[nH]1)C(=O)O; dArg(ω-Bn) = N=C(NCCC[C@@H](N)C(=O)O)NCc1ccccc1; Ala(morpholin-4-yl) = N[C@@H](CN1CCOCC1)C(=O)O; Benzoyl(3-OCH2COOH) = O=C(O)COc1cccc(C(=O)*)c1; Phe(3-CONH2) = NC(=O)c1cccc(C[C@H](N)C(=O)O)c1; Bip = N[C@@H](Cc1ccc(-c2ccccc2)cc1)C(=O)O; 2Pal = N[C@@H](Cc1ccccn1)C(=O)O; 2Thi = N[C@@H](Cc1cccs1)C(=O)O; Cha = N[C@@H](CC1CCCCC1)C(=O)O; Sar = CNCC(=O)O

The target in the first assay is TNFα (Homo sapiens, UniProt P01375). The assay is described as follows: TNF-Induced HEK-Blue Assay.
TNFα, sequence (P01375 77-233 limits assumed): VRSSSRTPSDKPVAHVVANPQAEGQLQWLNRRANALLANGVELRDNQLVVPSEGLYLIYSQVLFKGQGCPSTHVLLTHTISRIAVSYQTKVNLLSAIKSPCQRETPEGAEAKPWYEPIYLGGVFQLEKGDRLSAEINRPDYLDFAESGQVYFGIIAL
Conditions: not given
It is filed as cell-based.
In the case of `CC(C)C[C@@H]1NC(=O)[C@H](Cc2cnc[nH]2)NC(=O)[C@H](C(C)C)NC(=O)[C@@H]2CCCN2C(=O)[C@H](C(C)C)NC(=O)[C@@H](CCCNC(=N)NCc2ccccc2)NC(=O)[C@H](CC(=O)O)NC(=O)[C@H](Cc2ccccn2)NC(=O)CN(C)C(=O)[C@H](Cc2ccc(-c3ccc(NC(=O)c4cn(CC(=O)O)c5ccccc45)cc3)cc2)NC(=O)[C@H](Cc2ccc(-c3ccccc3)cc2)NC(=O)[C@H](CN2CCOCC2)NC(=O)CSC[C@@H](C(=O)NCC(N)=O)NC1=O` [Example 629] ({CH2CO}-[Ala(morpholin-4-yl)][Bip][Bip(4'-NH)](Indole3carbonyl(1-CH2COOH))[Sar][2Pal]D[dArg(ω-Bn)]VPVHLCG-NH2; thioether N-13), the IC50 (usually the concentration that inhibits the measured activity by half) lay in the range of 50 to 200 nM.

As for `CC(C)C[C@@H]1NC(=O)[C@H](CCCNC(=N)N)NC(=O)[C@H](C(C)C)NC(=O)[C@@H]2CCCN2C(=O)[C@H](C(C)C)NC(=O)[C@@H](CCCNC(=N)NCc2ccc(O)c(O)c2)NC(=O)[C@H](CC(=O)O)NC(=O)[C@@H]2CCCN2C(=O)CN(C)C(=O)[C@H](Cc2ccc(-c3ccc(NC(=O)c4nn(CC(=O)O)c5ccccc45)cc3)cc2)NC(=O)[C@H](Cc2ccc(-c3ccccc3)cc2)NC(=O)[C@H](CN2CCOCC2)NC(=O)CSC[C@@H](C(=O)NCC(N)=O)NC1=O` [Example 635] ({CH2CO}-[Ala(morpholin-4-yl)][Bip][Bip(4'-NH)](Indazole3carbonyl(1-CH2COOH))[Sar]PD[X68]VPVRLCG-NH2; thioether N-13), the IC50 was under 50 nM.

Consider `CC(C)C[C@@H]1NC(=O)[C@H](CCCNC(=N)N)NC(=O)[C@H](C(C)C)NC(=O)[C@@H]2CCCN2C(=O)[C@H](C(C)C)NC(=O)[C@@H](CCCNC(=N)NCc2cccc(N)c2)NC(=O)[C@H](CC(=O)O)NC(=O)[C@@H]2CCCN2C(=O)CN(C)C(=O)[C@H](Cc2ccc(-c3ccc(NC(=O)c4nn(CC(=O)O)c5ccccc45)cc3)cc2)NC(=O)[C@H](Cc2ccc(-c3ccccc3)cc2)NC(=O)[C@H](CN2CCOCC2)NC(=O)CSC[C@@H](C(=O)NCC(N)=O)NC1=O` [Example 636] ({CH2CO}-[Ala(morpholin-4-yl)][Bip][Bip(4'-NH)](Indazole3carbonyl(1-CH2COOH))[Sar]PD[X69]VPVRLCG-NH2; thioether N-13), for which the 50% inhibitory concentration (IC50) was under 50 nM.

`CC[C@H](C)[C@@H]1NC(=O)[C@@H](CCCNC(=N)NCc2cccc(O)c2)NC(=O)[C@H](CC(=O)O)NC(=O)[C@@H]2CCCN2C(=O)CN(C)C(=O)[C@H](Cc2ccc(-c3ccc(NC(=O)c4nn(CC(=O)O)c5ccccc45)cc3)cc2)NC(=O)[C@H](Cc2ccc(-c3ccccc3)cc2)NC(=O)[C@H](CN2CCOCC2)NC(=O)CSC[C@@H](C(=O)NCC(N)=O)NC(=O)[C@H](CC(C)C)NC(=O)[C@H](Cc2cnc[nH]2)NC(=O)[C@H](C(C)C)NC(=O)[C@@H]2CCCN2C1=O` [Example 637] ({CH2CO}-[Ala(morpholin-4-yl)][Bip][Bip(4'-NH)](Indazole3carbonyl(1-CH2COOH))[Sar]PD[dArg(ω-(3-HO-benzyl))]IPVHLCG-NH2; thioether N-13): the half-inhibitory concentration (IC50) is under 50 nM.

Turning to `CC(C)C[C@@H]1NC(=O)[C@H](Cc2cccs2)NC(=O)[C@H](C(C)C)NC(=O)[C@@H]2CCCN2C(=O)[C@H](C(C)C)NC(=O)[C@@H](CCCNC(=N)NCc2ccccc2)NC(=O)[C@H](CC(=O)O)NC(=O)[C@H](Cc2ccccn2)NC(=O)CN(C)C(=O)[C@H](Cc2ccc(-c3ccc(NC(=O)c4nn(CC(=O)O)c5ccccc45)cc3)cc2)NC(=O)[C@H](Cc2ccc(-c3ccccc3)cc2)NC(=O)[C@H](CN2CCOCC2)NC(=O)CSC[C@@H](C(=O)NCC(N)=O)NC1=O` [Example 638] ({CH2CO}-[Ala(morpholin-4-yl)][Bip][Bip(4'-NH)](Indazole3carbonyl(1-CH2COOH))[Sar][2Pal]D[dArg(ω-Bn)]VPV[2Thi]LCG-NH2; thioether N-13), the half-maximal inhibitory concentration (IC50) was under 50 nM.

`CC(C)C[C@@H]1NC(=O)[C@H](Cc2cccs2)NC(=O)[C@H](C(C)C)NC(=O)[C@@H]2CCCN2C(=O)[C@H](C(C)C)NC(=O)[C@@H](CCCNC(=N)NC[C@H](O)CO)NC(=O)[C@H](CC(=O)O)NC(=O)[C@H](Cc2ccccn2)NC(=O)CN(C)C(=O)[C@H](Cc2ccc(-c3ccc(NC(=O)c4nn(CC(=O)O)c5ccccc45)cc3)cc2)NC(=O)[C@H](Cc2ccc(-c3ccccc3)cc2)NC(=O)[C@H](CN2CCOCC2)NC(=O)CSC[C@@H](C(=O)NCC(N)=O)NC1=O` [Example 639] ({CH2CO}-[Ala(morpholin-4-yl)][Bip][Bip(4'-NH)](Indazole3carbonyl(1-CH2COOH))[Sar][2Pal]D[dArg(ω-(2S)-2,3-diOHpropyl)]VPV[2Thi]LCG-NH2; thioether N-13) came in with a 50% inhibitory concentration (IC50) of under 50 nM.

Molecule `CC(C)C[C@@H]1NC(=O)[C@H](Cc2cccs2)NC(=O)[C@H](C(C)C)NC(=O)[C@@H]2CCCN2C(=O)[C@H](C(C)C)NC(=O)[C@@H](CCCNC(=N)NC[C@H](O)[C@@H](O)[C@@H](O)CO)NC(=O)[C@H](CC(=O)O)NC(=O)[C@H](Cc2ccccn2)NC(=O)CN(C)C(=O)[C@H](Cc2ccc(-c3ccc(NC(=O)c4nn(CC(=O)O)c5ccccc45)cc3)cc2)NC(=O)[C@H](Cc2ccc(-c3ccccc3)cc2)NC(=O)[C@H](CN2CCOCC2)NC(=O)CSC[C@@H](C(=O)NCC(N)=O)NC1=O` [Example 640] ({CH2CO}-[Ala(morpholin-4-yl)][Bip][Bip(4'-NH)](Indazole3carbonyl(1-CH2COOH))[Sar][2Pal]D[X21]VPV[2Thi]LCG-NH2; thioether N-13) showed a half-inhibitory concentration (IC50) of 50 to 200 nM.

Still in this assay, the particulars now being: HEK-Blue-CD40L cells, NF-kB-driven secreted alkaline phosphatase reporter; TNFα 0.5 ng/ml; 18 h; read-out: TNF induced HEK-Blue assay IC50 value.
Consider `CC[C@H](C)[C@@H]1NC(=O)[C@@H](CCCNC(=N)N)NC(=O)[C@H](CC(=O)O)NC(=O)[C@H](Cc2cnc[nH]2)NC(=O)CN(C)C(=O)[C@H](Cc2ccc(-c3ccc(C(=O)Nc4cccc(CC(=O)O)c4)cc3)cc2)NC(=O)[C@H](Cc2ccc(-c3ccc(C(=O)O)cc3)cc2)NC(=O)[C@H](CC2CCCCC2)NC(=O)CSC[C@@H](C(=O)NCC(N)=O)NC(=O)[C@H](CC(C)C)NC(=O)[C@H](Cc2cnc[nH]2)NC(=O)[C@H](C(C)C)NC(=O)[C@@H]2CCCN2C1=O` [Example 630] ({CH2CO}-[Cha][Bip(4'-COOH)][X65][Sar]HD[dR]IPVHLCG-NH2; thioether N-13), for which the 50% inhibitory concentration (IC50) lay within 50 to 200 nM.

As to `CC[C@H](C)[C@@H]1NC(=O)[C@@H](CCCNC(=N)N)NC(=O)[C@H](CC(=O)O)NC(=O)[C@H](Cc2cnc[nH]2)NC(=O)CN(C)C(=O)[C@H](Cc2ccc(-c3ccc(C(=O)Nc4cccc(OCC(=O)O)c4)cc3)cc2)NC(=O)[C@H](Cc2ccc(-c3ccccc3)cc2)NC(=O)[C@H](Cc2cccc(C(N)=O)c2)NC(=O)CSC[C@@H](C(=O)NCC(N)=O)NC(=O)[C@H](CC(C)C)NC(=O)[C@H](Cc2cnc[nH]2)NC(=O)[C@H](C(C)C)NC(=O)[C@@H]2CCCN2C1=O` [Example 631] ({CH2CO}-[Phe(3-CONH2)][Bip][X56][Sar]HD[dR]IPVHLCG-NH2; thioether N-13), the IC50 lay in the range of 50 to 200 nM.

In the case of `CC[C@H](C)[C@@H]1NC(=O)[C@@H](CCCNC(=N)N)NC(=O)[C@H](CC(=O)O)NC(=O)[C@H](Cc2cnc[nH]2)NC(=O)CN(C)C(=O)[C@H](Cc2ccc(-c3ccc(C(=O)Nc4cccc(OCC(=O)O)c4)cc3)cc2)NC(=O)[C@H](Cc2ccc(-c3ccc(C(=O)O)cc3)cc2)NC(=O)[C@H](Cc2cccc(C(N)=O)c2)NC(=O)CSC[C@@H](C(=O)NCC(N)=O)NC(=O)[C@H](CC(C)C)NC(=O)[C@H](Cc2cnc[nH]2)NC(=O)[C@H](C(C)C)NC(=O)[C@@H]2CCCN2C1=O` [Example 632] ({CH2CO}-[Phe(3-CONH2)][Bip(4'-COOH)][X56][Sar]HD[dR]IPVHLCG-NH2; thioether N-13), the IC50 is 50 to 200 nM.

In the case of `CC[C@H](C)[C@@H]1NC(=O)[C@@H](CCCNC(=N)N)NC(=O)[C@H](CC(=O)O)NC(=O)[C@H](Cc2cnc[nH]2)NC(=O)CN(C)C(=O)[C@H](Cc2ccc(-c3ccc(C(=O)Nc4cccc(CC(=O)O)c4)cc3)cc2)NC(=O)[C@H](Cc2ccc(-c3ccc(C(=O)O)cc3)cc2)NC(=O)[C@H](Cc2cccc(C(N)=O)c2)NC(=O)CSC[C@@H](C(=O)NCC(N)=O)NC(=O)[C@H](CC(C)C)NC(=O)[C@H](Cc2cnc[nH]2)NC(=O)[C@H](C(C)C)NC(=O)[C@@H]2CCCN2C1=O` [Example 634] ({CH2CO}-[Phe(3-CONH2)][Bip(4'-COOH)][X65][Sar]HD[dR]IPVHLCG-NH2; thioether N-13), the 50% inhibitory concentration (IC50) lay within 50 to 200 nM.

On to `CC(C)C[C@@H]1NC(=O)[C@H](Cc2ncc[nH]2)NC(=O)[C@H](C(C)C)NC(=O)[C@@H]2CCCN2C(=O)[C@H](C(C)C)NC(=O)[C@@H](CCCNC(=N)NCc2ccccc2)NC(=O)[C@H](CC(=O)O)NC(=O)[C@H](Cc2ccccn2)NC(=O)CN(C)C(=O)[C@H](Cc2ccc(-c3ccc(NC(=O)c4cccc(OCC(=O)O)c4)cc3)cc2)NC(=O)[C@H](Cc2ccc(-c3ccccc3)cc2)NC(=O)[C@H](CN2CCOCC2)NC(=O)CSC[C@@H](C(=O)NCC(N)=O)NC1=O` [Example 641] ({CH2CO}-[Ala(morpholin-4-yl)][Bip][Bip(4'-NH)](Benzoyl(3-OCH2COOH))[Sar][2Pal]D[dArg(ω-Bn)]VPV[Ala(imidazol-2-yl)]LCG-NH2; thioether N-13), for which the concentration for half-maximal inhibition (IC50) is 50 to 200 nM.

As for `CC(C)C[C@@H]1NC(=O)[C@H](Cc2ncc[nH]2)NC(=O)[C@H](C(C)C)NC(=O)[C@@H]2CCCN2C(=O)[C@H](C(C)C)NC(=O)[C@@H](CCCNC(=N)NCc2ccccc2)NC(=O)[C@H](CC(=O)O)NC(=O)[C@H](Cc2ccccn2)NC(=O)CN(C)C(=O)[C@H](Cc2ccc(-c3ccc(NC(=O)c4ccc(CC(=O)O)cc4)cc3)cc2)NC(=O)[C@H](Cc2ccc(-c3ccccc3)cc2)NC(=O)[C@H](CN2CCOCC2)NC(=O)CSC[C@@H](C(=O)NCC(N)=O)NC1=O` [Example 642] ({CH2CO}-[Ala(morpholin-4-yl)][Bip][Bip(4'-NHCO-C6H4-4-CH2COOH)][Sar][2Pal]D[dArg(ω-Bn)]VPV[Ala(imidazol-2-yl)]LCG-NH2; thioether N-13), the IC50 lay within 200 to 2000 nM.
